Our source for the mass density and refractive index values is the NIST ThermoML archive (doi:10.1021/acs.jced.7b01135).

Numbers after ± are expanded uncertainties.

A short description of series [1]: wn = mass fraction of the nth substance listed. Conditions: 298.2 K; 101.3 kPa; Liquid; Pycnometric method; w1 = 0.2.
Series [2] in a line: refractive index (Na D-line) (dimensionless); wn = mass fraction of the nth substance listed. Conditions: 101.3 kPa, Liquid, Standard Abbe refractometry.
The nature of series [3]: refractive index (Na D-line) (dimensionless). The following applies: 298.2 K; 101.33 kPa; Liquid; Standard Abbe refractometry.
The conditions of series [4]: 298.2 K; 101.33 kPa; Liquid; Pycnometric method.

For the compound `O=C(O)CC(O)(CC(=O)O)C(=O)O` [citric acid] + O, the mass density in series [1] turned out to be 1085.86 ± 2 kg/m3. In addition, in series [2] (298.2 K, w1 = 0.2), the refractive index turned out to be 1.356 ± 0.012.

With `CCCCCCCCCCO` [decan-1-ol], the refractive index in series [3] was determined as 1.4346 ± 0.012. For the same compound, in series [4], the mass density is 826.86 ± 2 kg/m3.

For the compound `CCCCCCCCCCO` [decan-1-ol] + O, the refractive index amounted to 1.33545 ± 0.012 in series [2] (298.2 K, w2 = 0.9975); 1.33463 ± 0.012 in series [2] (308.2 K, w2 = 0.9938); 1.33317 ± 0.012 in series [2] (318.2 K, w2 = 0.9901); 1.33224 ± 0.012 in series [2] (328.2 K, w2 = 0.9864).

For `O` [water], in series [3], the refractive index is 1.3324 ± 0.012.
